Where “and” joins values, the source holds several entries; their conditions need not be identical. Identical values can stand only once.
Tested on: 292921-168-R-J2-PDC spheroids with HUVEC/MSC, viability
Test: Anticancer human tumor 292921-168-R-J2-PDC patient-derived pancreatic carcinoma cell line growth inhibition [TAK]
Settings: for viability, T/C: stronger effect = lower value
Method in brief: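 Spheroids of 60% malignant cells, 25% HUVEC and 15% hMSC were exposed to targeted agents combined with TAK-243 or ipatasertib. Concentrations started at or near clinical Cmax (10 microM if unknown) and descended in half-log steps.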

[1] = curve of first compound, second compound 0.3 µM
[2] = curve of first compound, second compound 0.949 µM
[3] = curve of first compound, second compound 3 µM
[4] = curve of first compound, second compound 9.49 µM
[5] = curve of first compound, second compound 30 µM
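Further: spheroids exposed to drugs for seven days before readout.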

Compound CC(=O)Nc1cccc(-n2c(=O)n(C3CC3)c(=O)c3c(Nc4ccc(I)cc4F)n(C)c(=O)c(C)c32)c1 + CC(C)NCC(C(=O)N1CCN(c2ncnc3c2C(C)CC3O)CC1)c1ccc(Cl)cc1 has an IC50 [1] of 0.45 nM, an IC50 [2] of 0.337 nM and an IC50 [3] of 0.209 nM. The IC50 [4] was 0.11 nM, the IC50 [5] was less than 0.0949 nM and the viability, T/C (second compound 0.3 µM, first compound 94.9 pM) was 74.9%. For the same compound, the viability, T/C (second compound 0.3 µM, first compound 0.0003 µM) was 59.5%, the viability, T/C (second compound 0.3 µM, first compound 0.000949 µM) was 32.6% and the viability, T/C (second compound 0.3 µM, first compound 0.003 µM) was 25.7%. For the same compound, the viability, T/C (second compound 0.3 µM, first compound 0.00949 µM) was 19.8%, the viability, T/C (second compound 0.3 µM, first compound 0.03 µM) was 13.9% and the viability, T/C (second compound 0.949 µM, first compound 94.9 pM) was 70.5%. For the same compound, the viability, T/C (second compound 0.949 µM, first compound 0.0003 µM) was 51.8%, the viability, T/C (second compound 0.949 µM, first compound 0.000949 µM) was 35.6% and the viability, T/C (second compound 0.949 µM, first compound 0.003 µM) was 26.6%. It also gave a viability, T/C (second compound 0.949 µM, first compound 0.00949 µM) of 17.8%, a viability, T/C (second compound 0.949 µM, first compound 0.03 µM) of 13.1% and a viability, T/C (second compound 3 µM, first compound 94.9 pM) of 63.8%. It also gave a viability, T/C (second compound 3 µM, first compound 0.0003 µM) of 44%, a viability, T/C (second compound 3 µM, first compound 0.000949 µM) of 28.8% and a viability, T/C (second compound 3 µM, first compound 0.003 µM) of 22.5%. The viability, T/C (second compound 3 µM, first compound 0.00949 µM) was 16.6%, the viability, T/C (second compound 3 µM, first compound 0.03 µM) was 12.3% and the viability, T/C (second compound 9.49 µM, first compound 94.9 pM) was 51.4%. For the same compound, the viability, T/C (second compound 9.49 µM, first compound 0.0003 µM) was 39%, the viability, T/C (second compound 9.49 µM, first compound 0.000949 µM) was 25.4% and the viability, T/C (second compound 9.49 µM, first compound 0.003 µM) was 18.8%. For the same compound, the viability, T/C (second compound 9.49 µM, first compound 0.00949 µM) was 14.3%, the viability, T/C (second compound 9.49 µM, first compound 0.03 µM) was 10.7% and the viability, T/C (second compound 30 µM, first compound 94.9 pM) was 34.9%. It also gave a viability, T/C (second compound 30 µM, first compound 0.0003 µM) of 26.6%, a viability, T/C (second compound 30 µM, first compound 0.000949 µM) of 20.3% and a viability, T/C (second compound 30 µM, first compound 0.003 µM) of 16%. It also gave a viability, T/C (second compound 30 µM, first compound 0.00949 µM) of 12.2% and a viability, T/C (second compound 30 µM, first compound 0.03 µM) of 9.91%.

Work on CC(C)(C)c1nc(-c2cccc(NS(=O)(=O)c3c(F)cccc3F)c2F)c(-c2ccnc(N)n2)s1 + CC(C)NCC(C(=O)N1CCN(c2ncnc3c2C(C)CC3O)CC1)c1ccc(Cl)cc1 yielded an IC50 [1] of 2270 nM, an IC50 [2] of 1800 nM and an IC50 [3] of 1250 nM. The IC50 [4] was 682 nM, the IC50 [5] was less than 31.6 nM and the viability, T/C (second compound 0.3 µM, first compound 0.0316 µM) was 94.8%. For the same compound, the viability, T/C (second compound 0.3 µM, first compound 0.1 µM) was 94.7%, the viability, T/C (second compound 0.3 µM, first compound 0.316 µM) was 88.7% and the viability, T/C (second compound 0.3 µM, first compound 1 µM) was 74.2%. For the same compound, the viability, T/C (second compound 0.3 µM, first compound 3.16 µM) was 40.1%, the viability, T/C (second compound 0.3 µM, first compound 10 µM) was 20.5% and the viability, T/C (second compound 0.949 µM, first compound 0.0316 µM) was 85.2%. For the same compound, the viability, T/C (second compound 0.949 µM, first compound 0.1 µM) was 92%, the viability, T/C (second compound 0.949 µM, first compound 0.316 µM) was 80.5% and the viability, T/C (second compound 0.949 µM, first compound 1 µM) was 66.9%. For the same compound, the viability, T/C (second compound 0.949 µM, first compound 3.16 µM) was 34.2%, the viability, T/C (second compound 0.949 µM, first compound 10 µM) was 17.9% and the viability, T/C (second compound 3 µM, first compound 0.0316 µM) was 83.4%. It also gave a viability, T/C (second compound 3 µM, first compound 0.1 µM) of 85.9%, a viability, T/C (second compound 3 µM, first compound 0.316 µM) of 77.4% and a viability, T/C (second compound 3 µM, first compound 1 µM) of 55.2%. It also gave a viability, T/C (second compound 3 µM, first compound 3.16 µM) of 27.5%, a viability, T/C (second compound 3 µM, first compound 10 µM) of 15.8% and a viability, T/C (second compound 9.49 µM, first compound 0.0316 µM) of 72.5%. It also gave a viability, T/C (second compound 9.49 µM, first compound 0.1 µM) of 70.8%, a viability, T/C (second compound 9.49 µM, first compound 0.316 µM) of 64.7% and a viability, T/C (second compound 9.49 µM, first compound 1 µM) of 42.5%. For the same compound, the viability, T/C (second compound 9.49 µM, first compound 3.16 µM) was 22.7%, the viability, T/C (second compound 9.49 µM, first compound 10 µM) was 15.2% and the viability, T/C (second compound 30 µM, first compound 0.0316 µM) was 46.5%. For the same compound, the viability, T/C (second compound 30 µM, first compound 0.1 µM) was 49.8%, the viability, T/C (second compound 30 µM, first compound 0.316 µM) was 44.1% and the viability, T/C (second compound 30 µM, first compound 1 µM) was 35.6%. For the same compound, the viability, T/C (second compound 30 µM, first compound 3.16 µM) was 19.8% and the viability, T/C (second compound 30 µM, first compound 10 µM) was 14.1%.

For CCCS(=O)(=O)Nc1ccc(F)c(C(=O)c2c[nH]c3ncc(-c4ccc(Cl)cc4)cc23)c1F, the viability, T/C (compound 0.316 µM) was 113% and 128%, the viability, T/C (compound 1 µM) was 117% and 127% and the viability, T/C (compound 3.16 µM) was 108% and 113%. The viability, T/C (compound 10 µM) was 55.1% and 67.5%, the viability, T/C (compound 31.6 µM) was 99.6% and 62.3% and the viability, T/C (compound 100 µM) was 80% and 94.5%. For the same compound, the IC50 (curve of compound) was greater than 100000 nM.

Cn1cnc2c(F)c(Nc3ccc(Br)cc3Cl)c(C(=O)NOCCO)cc21 was tested, and the viability, T/C (compound 0.00949 µM) was 57.2% and 47.3%, the viability, T/C (compound 0.03 µM) was 40.2% and 34.1% and the viability, T/C (compound 0.0949 µM) was 33.8% and 27.4%. The viability, T/C (compound 0.3 µM) was 31% and 24.2%, the viability, T/C (compound 0.949 µM) was 25.6% and 21.6% and the viability, T/C (compound 3 µM) was 15.3% and 11.8%. For the same compound, the IC50 (curve of compound) was 15.8 nM and < 9.49 nM.

CC(C)(C)c1nc(-c2cccc(NS(=O)(=O)c3c(F)cccc3F)c2F)c(-c2ccnc(N)n2)s1 was tested, and the viability, T/C (compound 0.0316 µM) was 109% and 122%, the viability, T/C (compound 0.1 µM) was 117% and 139% and the viability, T/C (compound 0.316 µM) was 111% and 110%. For the same compound, the viability, T/C (compound 1 µM) was 85% and 84.2%, the viability, T/C (compound 3.16 µM) was 62.5% and 67.1% and the viability, T/C (compound 10 µM) was 34% and 30.9%. For the same compound, the IC50 (curve of compound) was 4980 nM.

From PubChem BioAssay AID2060357 (Molecular Pharmacology Branch, DTP, NCI, 2025)
